Data as given in patent US20260137697A1, “THIAZOLO[5,4-D]PYRIMIDINE COMPOUNDS, COMPOSITIONS COMPRISING THEM AND USES THEREOF” (University de Montreal, priority 2022, published 2026).

Tests used:
BRAF = target: T1, BRAF (Homo sapiens, UniProt P15056); assay: BRAF kinase activity assay (ADP-Glo); assay type: biochemical; conditions: Table 3; 10 μM ATP, kinase-dead MEK1 substrate
T1 construct: GST; purchased Millipore Sigma B4062-10UG
Procedure, shortened: (§1)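 GST-tagged kinase (0.375 nM) with 75 nM kinase-dead MEK1 and 10 μM ATP in HEPES pH 7.5 buffer, 2 h at 30° C, nine concentrations 100–0.01 nM, 0.05% DMSO. ADP-Glo luminescence; % inhibition vs DMSO and substrate-only blanks, IC50 by four-parameter fit.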

pERK, HCT116 cells = assay: Phospho-ERK inhibition, AlphaLISA p-ERK 1/2, HCT-116; assay type: cell-based, human; conditions: Table 3; for IC50: HCT116 cells (KRAS G13D), 1 h treatment; for HCT116 pERK (Ymin %): lowest % inhibition value of the pERK IC50 curve, above −20% = no paradoxical induction
Procedure, shortened: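 Cells in RPMI-1640 with 5% FBS plated overnight, then treated 1 h with ten-point dilutions (10 μM to 0.33 nM, 0.5% DMSO). Lysate p-ERK1/2 (Thr202/Tyr204) read by AlphaLISA SureFire Ultra; % inhibition normalised to DMSO and 1 μM trametinib background, IC50 by four-parameter fit.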

CRAF = target: T2, CRAF (Homo sapiens, UniProt P04049); assay: CRAF kinase activity assay (ADP-Glo); assay type: biochemical; conditions: Table 3; 10 μM ATP, kinase-dead MEK1 substrate
T2 construct: fused on or other part: GST tag (N-terminal according to the vendor's product)
T2 sequence (P04049 whole entry Y340E/Y341E, form open, the tested form may be a part): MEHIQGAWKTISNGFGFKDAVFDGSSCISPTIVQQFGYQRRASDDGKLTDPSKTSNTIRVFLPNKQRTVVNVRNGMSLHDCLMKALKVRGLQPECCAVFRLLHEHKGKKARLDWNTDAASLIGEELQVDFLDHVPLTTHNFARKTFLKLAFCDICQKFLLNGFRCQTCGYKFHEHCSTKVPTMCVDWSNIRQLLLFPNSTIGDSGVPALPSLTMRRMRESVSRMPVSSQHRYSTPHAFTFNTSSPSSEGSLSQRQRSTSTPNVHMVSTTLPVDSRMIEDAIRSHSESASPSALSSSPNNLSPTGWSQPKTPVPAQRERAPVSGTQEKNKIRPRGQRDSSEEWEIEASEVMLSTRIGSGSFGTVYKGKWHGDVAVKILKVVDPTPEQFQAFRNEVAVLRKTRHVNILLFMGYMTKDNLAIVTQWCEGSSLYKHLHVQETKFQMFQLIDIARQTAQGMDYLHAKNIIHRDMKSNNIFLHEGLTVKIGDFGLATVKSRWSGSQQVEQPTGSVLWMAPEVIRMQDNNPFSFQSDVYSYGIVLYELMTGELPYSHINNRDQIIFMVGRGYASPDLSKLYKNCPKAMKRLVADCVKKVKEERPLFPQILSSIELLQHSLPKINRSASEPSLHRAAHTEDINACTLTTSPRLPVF
Procedure, shortened: as §1

T1 sequence (P15056 whole entry): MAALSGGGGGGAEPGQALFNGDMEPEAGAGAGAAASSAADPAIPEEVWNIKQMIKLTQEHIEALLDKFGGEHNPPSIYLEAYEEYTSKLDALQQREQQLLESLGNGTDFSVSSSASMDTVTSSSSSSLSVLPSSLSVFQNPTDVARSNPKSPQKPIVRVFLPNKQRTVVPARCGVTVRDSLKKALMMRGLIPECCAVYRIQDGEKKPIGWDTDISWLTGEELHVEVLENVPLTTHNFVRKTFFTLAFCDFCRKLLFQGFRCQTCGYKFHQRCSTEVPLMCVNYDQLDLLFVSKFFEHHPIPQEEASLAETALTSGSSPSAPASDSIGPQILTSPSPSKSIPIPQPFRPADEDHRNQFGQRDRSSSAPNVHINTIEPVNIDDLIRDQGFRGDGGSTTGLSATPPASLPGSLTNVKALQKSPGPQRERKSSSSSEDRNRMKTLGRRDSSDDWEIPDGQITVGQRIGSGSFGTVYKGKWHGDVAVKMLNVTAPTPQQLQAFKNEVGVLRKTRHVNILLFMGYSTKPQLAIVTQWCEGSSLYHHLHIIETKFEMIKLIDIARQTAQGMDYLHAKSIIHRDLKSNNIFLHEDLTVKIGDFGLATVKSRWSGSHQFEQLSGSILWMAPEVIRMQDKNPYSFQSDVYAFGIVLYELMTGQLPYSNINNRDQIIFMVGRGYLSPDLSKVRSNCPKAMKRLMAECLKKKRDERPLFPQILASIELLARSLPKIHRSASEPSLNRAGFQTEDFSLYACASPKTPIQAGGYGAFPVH

Row | IC50 (BRAF) | IC50 (pERK, HCT116 cells) | IC50 (CRAF) | IC50 (pERK, HCT116 cells; Homo sapiens, HCT-116) | Structure (SMILES) | HCT116 pERK (Ymin %) (pERK, HCT116 cells)
1 | 1 to 10 nM | < 500 nM | < 10 nM |  | O=C(c1cn(-c2nc3c(Nc4c(F)ccc(NS(=O)(=O)c5cccc(Cl)c5Cl)c4F)ncnc3s2)c2ccccc12)N1CC2CC1CO2 (stereo not drawn) [Example 84] | 18%
2 | > 10 nM | 1000 to 10000 nM | 10 to 50 nM |  | O=S(=O)(Nc1ccc(F)c(Nc2ncnc3sc(-n4nnc5ccccc54)nc23)c1F)c1cccc(Cl)c1Cl [Example 21] | −4%
3 | 1 to 10 nM | < 500 nM | > 50 nM |  | CC1(C#N)CCN(c2cccc3c2ncn3-c2nc3c(Nc4c(F)ccc(NS(=O)(=O)c5cccc(Cl)c5Cl)c4F)ncnc3s2)CC1 [Example 145] | −13%
4 | 1 to 10 nM |  | 10 to 50 nM | 1000 to 10000 nM | O=S(=O)(Nc1ccc(F)c(Nc2ncnc3sc(-n4cnc5cc(Cl)c(Cl)cc54)nc23)c1F)c1cccc(Cl)c1Cl [Example 47] | 
5 | < 1 nM | 500 to 1000 nM | < 10 nM |  | O=C(c1cn(-c2nc3c(Nc4c(F)ccc(NS(=O)(=O)c5cccc(Cl)c5Cl)c4F)ncnc3s2)c2ccccc12)N1CC(O)C1 [Example 59] | 4%
6 | 1 to 10 nM | 500 to 1000 nM | < 10 nM |  | Cc1ncn(-c2nc3c(Nc4c(F)ccc(NS(=O)(=O)c5cccc(Cl)c5Cl)c4F)ncnc3s2)c1C [Example 103] | −7%
7 | 1 to 10 nM | < 500 nM | 10 to 50 nM |  | CC(C)(C#N)c1cccc2c1ncn2-c1nc2c(Nc3c(F)ccc(NS(=O)(=O)c4cccc(Cl)c4Cl)c3F)ncnc2s1 [Example 104] | −10%
8 | 1 to 10 nM | 500 to 1000 nM | < 10 nM |  | CC(C)(O)C1CN(C(=O)c2cn(-c3nc4c(Nc5c(F)ccc(NS(=O)(=O)c6cccc(Cl)c6Cl)c5F)ncnc4s3)c3ccccc23)C1 [Example 87] | −8%
9 | < 1 nM | 500 to 1000 nM | < 10 nM |  | O=C(c1cn(-c2nc3c(Nc4c(F)ccc(NS(=O)(=O)c5cccc(Cl)c5Cl)c4F)ncnc3s2)c2ccccc12)N1CCC(O)C1 (stereo not drawn) [Example 53] | −9%
10 | 1 to 10 nM | 500 to 1000 nM | < 10 nM |  | Cc1c(Cl)cccc1S(=O)(=O)Nc1ccc(F)c(Nc2ncnc3sc(-n4cnc5ccccc54)nc23)c1F [Example 6] | −4%
11 | 1 to 10 nM | < 500 nM | < 10 nM |  | O=C(c1cn(-c2nc3c(Nc4c(F)ccc(NS(=O)(=O)c5cccc(Cl)c5Cl)c4F)ncnc3s2)c2ccccc12)N1CC2(CCOCC2)C1 [Example 58] | −12%
12 | > 10 nM | 1000 to 10000 nM | 10 to 50 nM |  | O=S(=O)(Nc1ccc(F)c(Nc2ncnc3sc(-n4cc(S(=O)(=O)N5CC(C(F)F)C5)c5ccccc54)nc23)c1F)c1cccc(Cl)c1Cl [Example 76] | −10%
13 | < 1 nM | < 500 nM | < 10 nM |  | O=S(=O)(Nc1ccc(F)c(Nc2ncnc3sc(-n4cnc5c(OCCO)cccc54)nc23)c1F)c1cccc(Cl)c1Cl [Example 111] | −10%
14 | < 1 nM | < 500 nM | < 10 nM |  | COCCOc1cccc2c1ncn2-c1nc2c(Nc3c(F)ccc(NS(=O)(=O)c4cccc(Cl)c4Cl)c3F)ncnc2s1 [Example 119] | −1%
15 | > 10 nM | 1000 to 10000 nM | > 50 nM |  | COC[C@@H]1CCCN1c1cccc2c1ncn2-c1nc2c(Nc3c(F)ccc(NS(=O)(=O)c4cccc(Cl)c4Cl)c3F)ncnc2s1 [Example 132] | −11%
16 | < 1 nM | < 500 nM | < 10 nM |  | CC(=O)N1CCN(c2cccc3c2ncn3-c2nc3c(Nc4c(F)ccc(NS(=O)(=O)c5cccc(Cl)c5Cl)c4F)ncnc3s2)CC1 [Example 130] | −2%
17 | 1 to 10 nM | < 500 nM | < 10 nM |  | O=S(=O)(Nc1ccc(F)c(Nc2ncnc3sc(-n4ccc5ncccc54)nc23)c1F)c1cccc(Cl)c1Cl [Example 115] | −11%
18 | < 1 nM | < 500 nM | < 10 nM |  | CN(C)CCN(C)S(=O)(=O)c1cn(-c2nc3c(Nc4c(F)ccc(NS(=O)(=O)c5cccc(Cl)c5Cl)c4F)ncnc3s2)c2ccccc12 [Example 41] | 0%
19 | 1 to 10 nM | < 500 nM | < 10 nM |  | N#CCc1cn(-c2nc3c(Nc4c(F)ccc(NS(=O)(=O)c5cccc(Cl)c5Cl)c4F)ncnc3s2)cn1 [Example 124] | 12%
20 | > 10 nM | < 500 nM | 10 to 50 nM |  | O=S(=O)(Nc1ccc(F)c(Nc2ncnc3sc(-n4cnc5c(N6CCC7(CCCO7)CC6)cccc54)nc23)c1F)c1cccc(Cl)c1Cl [Example 136] | −17%
21 | < 1 nM |  | < 10 nM | < 500 nM | O=S(=O)(Nc1ccc(F)c(Nc2ncnc3sc(-n4cnc5c(N6CCNCC6)cccc54)nc23)c1F)c1cccc(Cl)c1Cl [Example 156, 2,3-dichloro-N-[2,4-difluoro-3-[[2-(4-piperazin-1-ylbenzimidazol-1-yl)thiazolo[5,4-d]pyrimidin-7-yl]amino]phenyl]benzenesulfonamide] | 
22 | 1 to 10 nM |  | < 10 nM | 1000 to 10000 nM | O=S(=O)(Nc1ccc(F)c(Nc2ncnc3sc(-n4cnc5c(F)c(OCCO)ccc54)nc23)c1F)c1cccc(Cl)c1Cl [Example 80] | 
23 | > 10 nM | < 500 nM | > 50 nM |  | O=S(=O)(Nc1ccc(F)c(Nc2ncnc3sc(-n4cnc5c(N6CCC(O)(C(F)(F)F)CC6)cccc54)nc23)c1F)c1cccc(Cl)c1Cl [Example 137] | −14%
24 | > 10 nM | 500 to 1000 nM | > 50 nM |  | O=S(=O)(Nc1ccc(F)c(Nc2ncnc3sc(-n4cnc(-c5ccccc5)c4)nc23)c1F)c1cccc(Cl)c1Cl [Example 109] | −13%
25 | > 10 nM | 500 to 1000 nM | 10 to 50 nM |  | Cc1c(F)cccc1S(=O)(=O)Nc1ccc(F)c(Nc2ncnc3sc(-n4nc(C(=O)NCc5cccnc5)c5ccccc54)nc23)c1F [Example 24] | 2%
26 | 1 to 10 nM | < 500 nM | 10 to 50 nM |  | Cc1cc2ncn(-c3nc4c(Nc5c(F)ccc(NS(=O)(=O)c6cccc(Cl)c6Cl)c5F)ncnc4s3)c2cc1C [Example 20] | −12%

Row | Structure (SMILES) | IC50 (BRAF) | IC50 (pERK, HCT116 cells) | IC50 (CRAF) | IC50 (pERK, HCT116 cells; Homo sapiens, HCT-116) | HCT116 pERK (Ymin %) (pERK, HCT116 cells)
27 | O=C(c1cn(-c2nc3c(Nc4c(F)ccc(NS(=O)(=O)c5cccc(Cl)c5Cl)c4F)ncnc3s2)c2ccccc12)N1C2CCC1CN(CCO)C2 [Example 98] | 1 to 10 nM |  | < 10 nM | < 500 nM | 
28 | COc1ccc(S(=O)(=O)Nc2ccc(F)c(Nc3ncnc4sc(-n5cnc6ccccc65)nc34)c2F)c(C)c1Cl [Example 14] | 1 to 10 nM | 1000 to 10000 nM | 10 to 50 nM |  | −14%
